Key:
Test in all cases: TR FRET
Conditions in all cases: compound 0.01 µM
[1] = target: NTRK1 (human) (UniProt P04629)
[2] = target: CSK (human) (UniProt P41240)
[3] = system: RET (human), P07949 [M918T]
[4] = target: IKBKB (human) (UniProt O14920)
[5] = target: EPHA8 (human) (UniProt P29322)
[6] = target: LYN (human) (UniProt P07948)
[7] = target: ULK1 (human) (UniProt O75385)
[8] = target: FGR (human) (UniProt P09769)
[9] = target: MAPK14 (human) (UniProt Q16539)
[10] = target: MUSK (human) (UniProt O15146)
[11] = target: TIE1 (human) (UniProt P35590)
[12] = target: SGK3 (human) (UniProt Q96BR1)
[13] = target: EPHA4 (human) (UniProt P54764)
[14] = system: CPK1 (P.falciparum)
[15] = target: PDGFRA (human) (UniProt P16234)
[16] = target: NTRK2 (human) (UniProt Q16620)
[17] = target: TNK1 (human) (UniProt Q13470)
[18] = target: HCK (human) (UniProt P08631)
[19] = system: KIT (human), P10721 [V559D]
[20] = target: MAP3K7 (human) (UniProt O43318)
[21] = system: FLT3 (human), P36888 [K663Q]
[22] = system: KIT (human), P10721 [L576P]
[23] = target: MAP3K3 (human) (UniProt Q99759)
[24] = target: MAP4K1 (human) (UniProt Q92918)
[25] = target: BLK (human) (UniProt P51451)
[26] = target: BRAF (human) (UniProt P15056)
[27] = target: STK10 (human) (UniProt O94804)
[28] = target: FLT3 (human) (UniProt P36888)
[29] = target: CHUK (human) (UniProt O15111)
[30] = target: MAP2K5 (human) (UniProt Q13163)
[31] = target: SRC (human) (UniProt P12931)
[32] = system: FLT3 (human), P36888 [N841I]
[33] = target: TEK (human) (UniProt Q02763)
[34] = system: FLT3 (human), P36888 [R834Q]
[35] = target: BMX (human) (UniProt P51813)
[36] = target: CSF1R (human) (UniProt P07333)
[37] = system: FLT3 (human), P36888 [D835Y]
[38] = target: DDR2 (human) (UniProt Q16832)
[39] = target: LCK (human) (UniProt P06239)
[40] = system: BRAF (human), P15056 [V600E]
[41] = target: ANKK1 (human) (UniProt Q8NFD2)
[42] = target: MLTK (human) (UniProt Q9NYL2)
[43] = target: DDR1 (human) (UniProt Q08345)
[44] = target: PDGFRB (human) (UniProt P09619)
[45] = target: YES1 (human) (UniProt P07947)
[46] = target: RET (human) (UniProt P07949)
[47] = target: KIT (human) (UniProt P10721)
[48] = target: MAP3K2 (human) (UniProt Q9Y2U5)
[49] = system: KIT (human), P10721 [V559D/T670I]
[50] = target: TAOK3 (human) (UniProt Q9H2K8)
[51] = target: MAP4K2 (human) (UniProt Q12851)
[52] = target: FGFR1 (human) (UniProt P11362)
[53] = system: EIF2AK4 KD2 (human), Q9P2K8 [S808G]
[54] = target: EPHA3 (human) (UniProt P29320)
[55] = target: JAK3 JH1 catalytic (human) (UniProt P52333)
[56] = system: RET (human), P07949 [V804M]
[57] = target: TNIK (human) (UniProt Q9UKE5)
[58] = system: FLT3 (human), P36888 [D835H]
[59] = target: NTRK3 (human) (UniProt Q16288)

Sequence of BRAF (human), P15056 [V600E] (P15056 whole entry V600E, looked up): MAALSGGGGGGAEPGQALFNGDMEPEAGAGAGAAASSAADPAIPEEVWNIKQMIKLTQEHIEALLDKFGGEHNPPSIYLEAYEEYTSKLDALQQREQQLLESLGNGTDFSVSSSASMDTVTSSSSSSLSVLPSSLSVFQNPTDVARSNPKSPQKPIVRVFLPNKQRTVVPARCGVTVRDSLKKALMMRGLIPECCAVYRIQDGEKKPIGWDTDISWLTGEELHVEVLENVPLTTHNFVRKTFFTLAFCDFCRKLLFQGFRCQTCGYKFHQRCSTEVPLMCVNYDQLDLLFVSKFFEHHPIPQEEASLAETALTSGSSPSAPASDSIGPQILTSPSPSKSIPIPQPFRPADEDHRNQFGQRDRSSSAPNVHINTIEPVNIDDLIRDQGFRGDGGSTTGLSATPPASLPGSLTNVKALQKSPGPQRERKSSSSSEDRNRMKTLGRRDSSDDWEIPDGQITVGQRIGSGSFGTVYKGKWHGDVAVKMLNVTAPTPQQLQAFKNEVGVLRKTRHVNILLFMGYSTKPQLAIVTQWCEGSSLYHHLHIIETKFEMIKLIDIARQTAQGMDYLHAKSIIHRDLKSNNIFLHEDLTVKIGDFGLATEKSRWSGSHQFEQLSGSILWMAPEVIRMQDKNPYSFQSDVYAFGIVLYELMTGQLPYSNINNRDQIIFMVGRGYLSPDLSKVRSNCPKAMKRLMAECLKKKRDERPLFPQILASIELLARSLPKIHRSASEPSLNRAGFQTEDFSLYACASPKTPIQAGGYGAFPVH
Sequence of HCK (human) (P08631 whole entry, looked up): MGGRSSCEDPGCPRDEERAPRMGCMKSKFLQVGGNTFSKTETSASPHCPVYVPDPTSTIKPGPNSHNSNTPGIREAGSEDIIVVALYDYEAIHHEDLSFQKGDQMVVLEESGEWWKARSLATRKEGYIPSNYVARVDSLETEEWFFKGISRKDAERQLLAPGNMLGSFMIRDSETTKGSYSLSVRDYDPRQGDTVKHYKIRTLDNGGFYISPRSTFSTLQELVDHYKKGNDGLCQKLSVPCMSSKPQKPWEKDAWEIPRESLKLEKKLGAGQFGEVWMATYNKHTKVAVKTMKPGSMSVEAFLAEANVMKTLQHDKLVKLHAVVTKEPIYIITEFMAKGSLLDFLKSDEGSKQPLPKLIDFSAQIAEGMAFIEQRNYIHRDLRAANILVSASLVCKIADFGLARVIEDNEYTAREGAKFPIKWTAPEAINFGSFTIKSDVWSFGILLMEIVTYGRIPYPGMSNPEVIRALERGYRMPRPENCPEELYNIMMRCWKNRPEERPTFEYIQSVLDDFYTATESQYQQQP
Sequence of CSF1R (human) (P07333 whole entry, looked up): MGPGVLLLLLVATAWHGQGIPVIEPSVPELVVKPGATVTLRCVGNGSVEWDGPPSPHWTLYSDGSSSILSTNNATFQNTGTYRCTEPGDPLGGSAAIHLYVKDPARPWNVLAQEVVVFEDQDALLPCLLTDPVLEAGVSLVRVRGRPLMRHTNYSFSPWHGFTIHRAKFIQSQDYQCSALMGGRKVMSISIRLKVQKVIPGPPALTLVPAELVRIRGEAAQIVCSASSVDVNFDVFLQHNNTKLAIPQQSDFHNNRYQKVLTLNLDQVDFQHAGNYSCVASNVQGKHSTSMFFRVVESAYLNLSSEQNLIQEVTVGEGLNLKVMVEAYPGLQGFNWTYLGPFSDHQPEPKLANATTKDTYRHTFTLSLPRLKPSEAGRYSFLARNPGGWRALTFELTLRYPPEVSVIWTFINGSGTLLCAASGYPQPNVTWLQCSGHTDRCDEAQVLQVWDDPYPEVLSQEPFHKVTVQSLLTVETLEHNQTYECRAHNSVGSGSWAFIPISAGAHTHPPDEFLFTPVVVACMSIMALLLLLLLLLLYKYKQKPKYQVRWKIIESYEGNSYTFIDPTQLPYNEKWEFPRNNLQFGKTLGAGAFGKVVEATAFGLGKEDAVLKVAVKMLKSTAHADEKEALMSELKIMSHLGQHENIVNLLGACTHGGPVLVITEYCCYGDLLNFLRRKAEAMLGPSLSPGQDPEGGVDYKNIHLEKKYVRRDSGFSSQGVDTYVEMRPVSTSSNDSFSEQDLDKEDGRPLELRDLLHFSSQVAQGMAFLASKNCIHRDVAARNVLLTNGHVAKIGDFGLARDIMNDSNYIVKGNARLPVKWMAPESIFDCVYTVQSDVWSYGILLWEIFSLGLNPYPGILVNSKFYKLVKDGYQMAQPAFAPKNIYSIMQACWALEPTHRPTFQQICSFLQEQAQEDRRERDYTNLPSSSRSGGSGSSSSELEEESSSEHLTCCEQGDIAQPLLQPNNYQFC
Sequence of JAK3 JH1 catalytic (human) (P52333 whole entry, looked up): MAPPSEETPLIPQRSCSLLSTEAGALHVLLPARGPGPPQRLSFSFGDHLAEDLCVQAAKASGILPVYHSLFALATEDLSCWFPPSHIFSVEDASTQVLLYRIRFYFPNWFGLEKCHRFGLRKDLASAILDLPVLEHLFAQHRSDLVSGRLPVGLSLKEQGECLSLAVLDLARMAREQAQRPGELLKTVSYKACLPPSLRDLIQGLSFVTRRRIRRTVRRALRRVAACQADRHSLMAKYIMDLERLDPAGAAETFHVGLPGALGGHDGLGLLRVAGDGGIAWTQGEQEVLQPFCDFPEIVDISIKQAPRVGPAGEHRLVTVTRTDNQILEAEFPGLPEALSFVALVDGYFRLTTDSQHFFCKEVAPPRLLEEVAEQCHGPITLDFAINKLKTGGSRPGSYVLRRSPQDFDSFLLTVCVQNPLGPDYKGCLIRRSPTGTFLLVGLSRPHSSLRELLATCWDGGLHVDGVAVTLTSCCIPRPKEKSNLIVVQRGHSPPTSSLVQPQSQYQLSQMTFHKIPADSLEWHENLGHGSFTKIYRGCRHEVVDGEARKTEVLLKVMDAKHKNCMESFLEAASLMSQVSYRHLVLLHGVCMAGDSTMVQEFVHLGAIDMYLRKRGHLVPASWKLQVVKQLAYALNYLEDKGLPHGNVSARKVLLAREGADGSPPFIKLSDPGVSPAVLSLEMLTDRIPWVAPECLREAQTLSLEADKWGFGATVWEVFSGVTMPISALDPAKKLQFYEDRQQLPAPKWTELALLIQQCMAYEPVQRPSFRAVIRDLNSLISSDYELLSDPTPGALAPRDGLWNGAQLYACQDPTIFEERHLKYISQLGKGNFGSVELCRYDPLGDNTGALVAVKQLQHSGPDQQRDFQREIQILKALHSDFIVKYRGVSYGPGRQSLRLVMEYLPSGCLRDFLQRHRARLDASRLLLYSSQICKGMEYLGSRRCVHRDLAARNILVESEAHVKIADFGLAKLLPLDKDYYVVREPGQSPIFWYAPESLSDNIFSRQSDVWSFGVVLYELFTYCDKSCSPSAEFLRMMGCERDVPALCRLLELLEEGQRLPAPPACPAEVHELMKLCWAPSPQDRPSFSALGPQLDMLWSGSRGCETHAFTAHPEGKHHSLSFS
Sequence of MAP3K7 (human) (O43318 whole entry, looked up): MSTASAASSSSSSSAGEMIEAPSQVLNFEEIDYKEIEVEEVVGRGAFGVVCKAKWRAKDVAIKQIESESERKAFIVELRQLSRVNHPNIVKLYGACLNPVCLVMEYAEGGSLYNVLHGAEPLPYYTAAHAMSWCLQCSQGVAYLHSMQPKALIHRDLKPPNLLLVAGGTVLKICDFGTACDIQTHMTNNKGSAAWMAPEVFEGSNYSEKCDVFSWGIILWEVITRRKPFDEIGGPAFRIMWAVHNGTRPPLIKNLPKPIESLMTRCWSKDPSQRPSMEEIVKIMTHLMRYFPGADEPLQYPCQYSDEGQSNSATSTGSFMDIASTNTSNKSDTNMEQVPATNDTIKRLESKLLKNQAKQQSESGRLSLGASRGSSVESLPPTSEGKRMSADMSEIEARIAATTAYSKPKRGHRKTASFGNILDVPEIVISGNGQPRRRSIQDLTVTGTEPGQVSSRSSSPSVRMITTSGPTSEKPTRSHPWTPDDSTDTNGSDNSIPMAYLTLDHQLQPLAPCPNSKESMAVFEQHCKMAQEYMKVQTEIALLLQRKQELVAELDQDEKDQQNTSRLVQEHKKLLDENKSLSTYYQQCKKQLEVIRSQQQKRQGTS
Sequence of YES1 (human) (P07947 whole entry, looked up): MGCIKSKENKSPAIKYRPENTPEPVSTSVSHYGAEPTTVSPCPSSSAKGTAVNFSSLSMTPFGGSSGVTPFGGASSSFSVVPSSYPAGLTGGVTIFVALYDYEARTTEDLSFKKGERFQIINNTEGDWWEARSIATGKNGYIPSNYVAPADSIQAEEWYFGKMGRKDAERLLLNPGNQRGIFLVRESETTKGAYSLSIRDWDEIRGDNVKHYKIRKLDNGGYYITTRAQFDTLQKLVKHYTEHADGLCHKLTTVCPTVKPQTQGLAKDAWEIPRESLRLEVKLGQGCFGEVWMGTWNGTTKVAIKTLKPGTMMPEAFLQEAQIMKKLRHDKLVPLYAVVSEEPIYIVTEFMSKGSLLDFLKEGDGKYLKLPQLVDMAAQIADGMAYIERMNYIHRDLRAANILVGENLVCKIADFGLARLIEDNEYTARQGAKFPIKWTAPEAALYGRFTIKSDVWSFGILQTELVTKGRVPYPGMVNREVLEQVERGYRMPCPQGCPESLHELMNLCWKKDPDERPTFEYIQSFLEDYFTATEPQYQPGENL
Sequence of SGK3 (human) (Q96BR1 whole entry, looked up): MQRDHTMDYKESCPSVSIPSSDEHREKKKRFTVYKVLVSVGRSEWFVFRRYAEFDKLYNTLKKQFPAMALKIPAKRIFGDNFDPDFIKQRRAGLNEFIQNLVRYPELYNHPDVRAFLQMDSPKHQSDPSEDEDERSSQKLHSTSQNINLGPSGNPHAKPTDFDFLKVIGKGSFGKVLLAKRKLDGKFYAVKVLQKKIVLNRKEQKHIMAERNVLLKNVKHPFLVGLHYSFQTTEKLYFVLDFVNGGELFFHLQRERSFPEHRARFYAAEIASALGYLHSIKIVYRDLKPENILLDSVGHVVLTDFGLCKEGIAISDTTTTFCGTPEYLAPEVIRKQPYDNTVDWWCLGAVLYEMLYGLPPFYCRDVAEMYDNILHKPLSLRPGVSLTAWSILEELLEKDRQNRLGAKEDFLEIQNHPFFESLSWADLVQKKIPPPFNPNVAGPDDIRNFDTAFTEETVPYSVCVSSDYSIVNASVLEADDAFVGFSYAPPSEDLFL

inhibition [1]: 100%
inhibition [2]: 97.8%
inhibition [3]: 90.6%
inhibition [4]: 90%
inhibition [5]: 89%
inhibition [6]: 83%
inhibition [7]: 51%
inhibition [8]: 81%
inhibition [9]: 59%
inhibition [10]: 78%
inhibition [11]: 82%
inhibition [12]: 52%
inhibition [13]: 52%
inhibition [14]: 79%
inhibition [15]: 76%
inhibition [16]: 86%
inhibition [17]: 83%
inhibition [18]: 95.8%
inhibition [19]: 98.6%
inhibition [20]: 96.2%
inhibition [21]: 95%
inhibition [22]: 97.8%
inhibition [23]: 90%
inhibition [24]: 59%
inhibition [25]: 97.6%
inhibition [26]: 78%
inhibition [27]: 99.8%
inhibition [28]: 97.6%
inhibition [29]: 86%
inhibition [30]: 94.8%
inhibition [31]: 76%
inhibition [32]: 97.1%
inhibition [33]: 97.2%
inhibition [34]: 77%
inhibition [35]: 51%
inhibition [36]: 97.8%
inhibition [37]: 58%
inhibition [38]: 64%
inhibition [39]: 96.8%
inhibition [40]: 93.6%
inhibition [41]: 55%
inhibition [42]: 96.2%
inhibition [43]: 99.8%
inhibition [44]: 90.5%
inhibition [45]: 70%
inhibition [46]: 85%
inhibition [47]: 97.2%
inhibition [48]: 63%
inhibition [49]: 91.9%
inhibition [50]: 92.1%
inhibition [51]: 86%
inhibition [52]: 84%
inhibition [53]: 54%
inhibition [54]: 89%
inhibition [55]: 67%
inhibition [56]: 65%
inhibition [57]: 81%
inhibition [58]: 82%
inhibition [59]: 82%
Structure (SMILES): Cc1ccc(C(=O)Nc2ccc(CN3CCN(C)CC3)c(C(F)(F)F)c2)cc1C#Cc1cnc2[nH]ncc2c1
